From patent US9730447B2, “Fungicidal amides” (E I DU PONT DE NEMOURS AND COMPANY, priority 2013, dated 2017)
Marks after values point to notes of the source that are not given here.

Legend:
Type in all cases: in vivo
[1] = test system: Puccinia recondite f. sp. tritici; test: Test D: preventive spray on wheat seedlings, Puccinia recondite f. sp. tritici (wheat leaf rust), visual disease rating
Excerpt: (§1) General protocol for preparing test suspensions for Tests A-E: the test compounds were first dissolved in acetone in an amount equal to 3% of the final volume and then suspended at the desired concentration (in ppm) in acetone and purified water (50/50 mix by volume) containing 250 ppm of the surfactant Trem® 014 (polyhydric alcohol esters). The resulting test suspensions were then used in Tests A-E. Compounds were sprayed with either a 40 ppm or 10 ppm (*) test suspension to the point of run-off on the test plants which is the equivalent of a rate of 160 g ai/ha or 40 g ai/ha, respectively.
The test suspension was sprayed to the point of run-off on wheat seedlings. The following day the seedlings were inoculated with a spore suspension of Puccinia recondite f. sp. tritici; (the causal agent of wheat leaf rust) and incubated in a saturated atmosphere at 20° C. for 24 h, and then moved to a growth chamber at 20° C. for 6 days, after which time visual disease ratings were made.
(§2) Results for Tests A-E are given in Table A. In the Table, a rating of 100 indicates 100% disease control and a rating of 0 indicates no disease control (relative to the controls). A dash (-) indicates no test results.

[2] = test system: Septoria tritici; test: Test C: preventive spray on wheat seedlings, Septoria tritici (wheat leaf blotch), visual disease rating
Excerpt: as §1
The test suspension was sprayed to the point of run-off on wheat seedlings. The following day the seedlings were inoculated with a spore suspension of Septoria tritici (the causal agent of wheat leaf blotch) and incubated in a saturated atmosphere at 24° C. for 48 h, and then moved to a growth chamber at 20° C. for 21 days, after which time visual disease ratings were made.
as §2

[3] = test system: Stagonospora nodorum (also known as Septoria nodorum); test: Test B: preventive spray on wheat seedlings, Stagonospora nodorum (wheat glume blotch), visual disease rating
Excerpt: as §1
The test suspension was sprayed to the point of run-off on wheat seedlings. The following day the seedlings were inoculated with a spore suspension of Stagonospora nodorum (also known as Septoria nodorum; the causal agent of wheat glume blotch) and incubated in a saturated atmosphere at 20° C. for 48 h, and then moved to a growth chamber at 20° C. for 6 days, after which time visual disease ratings were made.
as §2

[4] = test system: Erysiphe graminis f. sp. tritici; test: Test E: preventive spray on wheat seedlings, Erysiphe graminis f. sp. tritici (wheat powdery mildew), visual disease rating
Excerpt: as §1
The test suspension was sprayed to the point of run-off on wheat seedlings. The following day the seedlings were inoculated with a spore dust of Erysiphe graminis f. sp. tritici, (the causal agent of wheat powdery mildew) and incubated in a growth chamber at 20° C. for 8 days, after which time visual disease ratings were made.
as §2

[5] = 100 = 100% disease control, 0 = no control, unmarked values
[6] = values marked with asterisk (*), meaning not given

SMILES | Test D disease control rating [1, 5] | Test C disease control rating [2, 5] | Test B disease control rating [3, 5] | Test E disease control rating [4, 5] | Test D disease control rating [1, 6] | Test C disease control rating [2, 6] | Test B disease control rating [3, 6] | Test E disease control rating [4, 6]
CCOC(=O)C1(C)CC(c2ccc(-c3ccccc3NC(=O)c3ncccc3C(F)(F)F)cn2)=NO1 (racemic) [compound 144] | 68% | 81% | 0% | 0% | – | – | – | –
CCOC(=O)C1CC(c2ccc(-c3ccccc3NC(=O)c3ncccc3C(F)(F)F)cn2)=NO1 (racemic) [compound 145] | 0% | 26% | 0% | 0% | – | – | – | –
CC1(C(=O)O)CC(c2ccc(-c3ccccc3NC(=O)c3ncccc3C(F)(F)F)cn2)=NO1 (racemic) [compound 146] | 0% | 1% | 0% | 0% | – | – | – | –
Cc1ccn(-c2cnc(CCNC(=O)c3ncccc3C(F)(F)F)nc2)n1 [Compound 178] | – | – | – | – | 0* % | 0* % | 3* % | 0* %
O=C(NCCc1ncc(-n2ccc(Br)n2)cn1)c1ncccc1C(F)(F)F [Compound 179] | – | – | 0% | – | 0* % | 5* % | – | 0* %
O=C(NCCc1ncc(-n2cc(Br)cn2)cn1)c1ncccc1C(F)(F)F [Compound 180] | – | – | 0% | – | 0* % | 2* % | – | 0* %
O=C(NCCc1ncc(-n2ccc(Cl)n2)cn1)c1ncccc1C(F)(F)F [Compound 181] | – | – | – | – | 9* % | 20* % | 64* % | 0* %
Cc1cnn(-c2cnc(CCNC(=O)c3ncccc3C(F)(F)F)nc2)c1 [Compound 182] | – | – | 0% | – | 0* % | 9* % | – | 0* %
O=C(Nc1ccccc1-c1ccc(-n2cccn2)nc1)c1ncccc1C(F)(F)F [compound 12] | 99% | 100% | 100% | 98% | – | – | – | –
O=C(Nc1ccccc1-c1ccc(-n2cc(Br)cn2)nc1)c1ncccc1C(F)(F)F [compound 14] | 99% | 100% | 100% | 98% | – | – | – | –
Cn1cc(C(=O)Nc2ccccc2-c2ccc(-n3cccn3)nc2)c(C(F)F)n1 [compound 15] | 100% | 100% | 99% | 97% | – | – | – | –
COc1cccc(-c2cnn(-c3ccc(-c4ccccc4NC(=O)c4ncccc4C(F)(F)F)cn3)c2)c1 [compound 16] | 99% | 100% | 100% | 69% | – | – | – | –
COc1cccc(C2CC(c3ccc(-c4ccccc4NC(=O)c4cn(C)nc4C(F)F)cn3)=NO2)c1 (stereo not shown) [compound 102] | 100% | 97% | 99% | 73% | – | – | – | –
CC1=C(C(=O)Nc2ccccc2-c2cnc(-n3ccc(C(F)(F)F)n3)c(F)c2)SCCO1 [compound 113] | 97% | 77% | 0% | 0% | – | – | – | –
CC1=C(C(=O)Nc2ccccc2-c2cnc(-n3ccc(C(F)(F)F)n3)c(F)c2)S(=O)(=O)CCO1 [compound 114] | 100% | 84% | 0% | 64% | – | – | – | –
O=C(Nc1ccccc1-c1cnc(-n2ccc(C(F)(F)F)n2)c(F)c1)c1nccnc1C(F)(F)F [compound 115] | 100% | 98% | 100% | 100% | – | – | – | –
O=C(Nc1ccccc1-c1cnc(-n2ccc(C(F)(F)F)n2)c(F)c1)c1ncsc1C(F)(F)F [compound 126] | 100% | 99% | 99% | 99% | – | – | – | –
Cn1cc(C(=O)Nc2ccccc2-c2cnc(-n3ccc(C(F)(F)F)n3)c(C#N)c2)c(C(F)(F)F)n1 [compound 127] | – | – | 0% | – | 100* % | 62* % | – | 40* %
COc1cccc(C2CC(c3ccc(-c4ccccc4NC(=O)c4ncccc4C(F)(F)F)cn3)=NN2C)c1 (stereo not shown) [compound 130] | 97% | 89% | 11% | 69% | – | – | – | –
O=C(Nc1ccccc1-c1cnc(-n2ccc(C(F)(F)F)n2)c(Cl)c1)c1ccccc1C(F)F [compound 132] | 99% | 99% | 0% | 98% | – | – | – | –
O=C(Nc1ccccc1-c1cnc(-n2ccc(C(F)(F)F)n2)c(Cl)c1)c1ccsc1Br [compound 139] | – | – | – | – | 100* % | 98* % | – | 40* %
CSc1ccsc1C(=O)Nc1ccccc1-c1cnc(-n2ccc(C(F)(F)F)n2)c(Cl)c1 [compound 141] | – | – | – | – | 97* % | 76* % | – | 0* %
CSc1sccc1C(=O)Nc1ccccc1-c1cnc(-n2ccc(C(F)(F)F)n2)c(Cl)c1 [compound 142] | – | – | – | – | 97* % | 88* % | – | 0* %
N#Cc1cc(-c2ccccc2NC(=O)c2sccc2I)cnc1-n1ccc(C(F)(F)F)n1 [compound 143] | – | – | – | – | 100* % | 100* % | – | 64* %
O=C(Nc1ccccc1-c1cnc(-n2ccc(C(F)(F)F)n2)c(F)c1)c1nccnc1Cl [compound 149] | 99% | 97% | 95% | 98% | – | – | – | –
Cn1cc(C(=O)Nc2ccccc2-c2cnc(-n3ccc(C(F)(F)F)n3)c(F)c2)c(C(F)(F)F)n1 [compound 150] | 100% | 98% | 92% | 99% | – | – | – | –
Cn1cc(C(=O)Nc2ccccc2-c2cnc(-n3cnc(C(F)(F)F)c3)c(F)c2)c(C(F)F)n1 [compound 153] | – | – | – | – | 99* % | 99* % | – | 40* %
Cc1ncsc1C(=O)Nc1ccccc1-c1cnc(-n2ccc(C(F)(F)F)n2)c(Cl)c1 [compound 164] | – | – | – | – | 91* % | 96* % | – | 69* %
